Reference: the kinase profiling compilation of Christmann-Franck et al. (2016)

Columns and labels:
Assay in all cases: KINOMEscan competition binding
Conditions in all cases: compound 10.0 µM
[1] = target: AURKB (human) (UniProt Q96GD4)
[2] = target: GSK3B (human) (UniProt P49841)
[3] = test system: EGFR (human), P00533 [L858R]
[4] = target: RPS6KA4 KD2 (human) (UniProt O75676)
[5] = target: SRPK1 (human) (UniProt Q96SB4)
[6] = target: SNRK (human) (UniProt Q9NRH2)
[7] = target: MAPK11 (human) (UniProt Q15759)
[8] = target: CSF1R (human) (UniProt P07333)
Chain of CSF1R (human) (P07333 whole entry, looked up): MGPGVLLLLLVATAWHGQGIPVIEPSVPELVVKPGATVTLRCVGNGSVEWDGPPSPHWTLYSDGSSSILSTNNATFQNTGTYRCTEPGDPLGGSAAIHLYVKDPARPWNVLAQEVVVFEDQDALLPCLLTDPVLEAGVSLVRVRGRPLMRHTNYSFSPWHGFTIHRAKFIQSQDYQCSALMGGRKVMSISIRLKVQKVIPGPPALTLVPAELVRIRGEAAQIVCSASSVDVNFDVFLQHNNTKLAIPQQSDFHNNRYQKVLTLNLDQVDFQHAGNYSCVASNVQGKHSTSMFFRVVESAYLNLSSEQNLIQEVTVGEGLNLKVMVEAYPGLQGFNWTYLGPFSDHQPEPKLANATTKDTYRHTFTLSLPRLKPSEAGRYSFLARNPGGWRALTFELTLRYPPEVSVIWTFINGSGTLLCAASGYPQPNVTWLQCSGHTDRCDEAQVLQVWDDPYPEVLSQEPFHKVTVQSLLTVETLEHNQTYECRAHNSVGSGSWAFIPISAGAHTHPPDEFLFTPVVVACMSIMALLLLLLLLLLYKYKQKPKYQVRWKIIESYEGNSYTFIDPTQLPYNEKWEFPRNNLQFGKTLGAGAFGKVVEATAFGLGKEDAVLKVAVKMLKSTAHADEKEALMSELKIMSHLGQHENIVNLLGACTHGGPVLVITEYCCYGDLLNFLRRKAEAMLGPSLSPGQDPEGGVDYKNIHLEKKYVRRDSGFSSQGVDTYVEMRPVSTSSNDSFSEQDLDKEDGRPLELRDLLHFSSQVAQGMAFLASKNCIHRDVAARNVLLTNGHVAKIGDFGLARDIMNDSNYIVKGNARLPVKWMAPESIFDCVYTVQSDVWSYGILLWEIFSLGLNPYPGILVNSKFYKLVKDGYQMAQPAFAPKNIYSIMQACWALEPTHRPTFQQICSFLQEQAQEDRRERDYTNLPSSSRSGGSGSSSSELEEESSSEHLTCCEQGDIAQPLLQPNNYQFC

[9] = target: RIOK1 (human) (UniProt Q9BRS2)
[10] = target: AURKC (human) (UniProt Q9UQB9)
[11] = target: PDGFRA (human) (UniProt P16234)
[12] = target: PRKAA1 (human) (UniProt Q13131)
[13] = target: MINK1 (human) (UniProt Q8N4C8)
[14] = target: MAP3K12 (human) (UniProt Q12852)
[15] = target: STK33 (human) (UniProt Q9BYT3)
[16] = target: HCK (human) (UniProt P08631)
[17] = target: PRKD2 (human) (UniProt Q9BZL6)
[18] = target: STK35 (human) (UniProt Q8TDR2)
[19] = target: MARK4 (human) (UniProt Q96L34)
[20] = target: SBK1 (human) (UniProt Q52WX2)
[21] = target: STK16 (human) (UniProt O75716)
[22] = target: AURKA (human) (UniProt O14965)
[23] = target: ANKK1 (human) (UniProt Q8NFD2)
Chain of ANKK1 (human) (Q8NFD2 whole entry, looked up): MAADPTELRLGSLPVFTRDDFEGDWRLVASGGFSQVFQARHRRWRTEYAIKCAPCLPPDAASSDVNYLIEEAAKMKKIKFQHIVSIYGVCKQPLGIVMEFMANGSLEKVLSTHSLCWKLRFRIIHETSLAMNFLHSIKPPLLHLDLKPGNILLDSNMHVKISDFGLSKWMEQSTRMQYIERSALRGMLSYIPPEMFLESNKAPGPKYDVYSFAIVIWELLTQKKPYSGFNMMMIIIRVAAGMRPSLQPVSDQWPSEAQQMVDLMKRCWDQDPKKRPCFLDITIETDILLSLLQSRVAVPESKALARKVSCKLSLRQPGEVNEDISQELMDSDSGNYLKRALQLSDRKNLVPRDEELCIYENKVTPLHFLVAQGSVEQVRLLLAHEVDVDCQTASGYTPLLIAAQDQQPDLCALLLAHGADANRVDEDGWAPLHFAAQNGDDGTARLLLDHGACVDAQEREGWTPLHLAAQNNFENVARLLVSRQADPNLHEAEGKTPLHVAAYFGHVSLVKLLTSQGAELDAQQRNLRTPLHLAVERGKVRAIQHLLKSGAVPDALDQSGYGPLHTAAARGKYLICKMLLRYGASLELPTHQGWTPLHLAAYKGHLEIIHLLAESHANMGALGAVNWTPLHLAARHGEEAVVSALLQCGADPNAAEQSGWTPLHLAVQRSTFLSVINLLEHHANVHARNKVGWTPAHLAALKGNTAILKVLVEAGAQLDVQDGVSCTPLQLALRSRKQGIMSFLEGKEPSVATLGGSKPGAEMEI

[24] = test system: FLT3 (human), P36888 [D835Y]
[25] = target: TESK1 (human) (UniProt Q15569)
[26] = target: CaMK1 (human) (UniProt Q14012)
[27] = target: MAPK10 (human) (UniProt P53779)
[28] = target: PKN2 (human) (UniProt Q16513)
Chain of PKN2 (human) (Q16513 whole entry, looked up): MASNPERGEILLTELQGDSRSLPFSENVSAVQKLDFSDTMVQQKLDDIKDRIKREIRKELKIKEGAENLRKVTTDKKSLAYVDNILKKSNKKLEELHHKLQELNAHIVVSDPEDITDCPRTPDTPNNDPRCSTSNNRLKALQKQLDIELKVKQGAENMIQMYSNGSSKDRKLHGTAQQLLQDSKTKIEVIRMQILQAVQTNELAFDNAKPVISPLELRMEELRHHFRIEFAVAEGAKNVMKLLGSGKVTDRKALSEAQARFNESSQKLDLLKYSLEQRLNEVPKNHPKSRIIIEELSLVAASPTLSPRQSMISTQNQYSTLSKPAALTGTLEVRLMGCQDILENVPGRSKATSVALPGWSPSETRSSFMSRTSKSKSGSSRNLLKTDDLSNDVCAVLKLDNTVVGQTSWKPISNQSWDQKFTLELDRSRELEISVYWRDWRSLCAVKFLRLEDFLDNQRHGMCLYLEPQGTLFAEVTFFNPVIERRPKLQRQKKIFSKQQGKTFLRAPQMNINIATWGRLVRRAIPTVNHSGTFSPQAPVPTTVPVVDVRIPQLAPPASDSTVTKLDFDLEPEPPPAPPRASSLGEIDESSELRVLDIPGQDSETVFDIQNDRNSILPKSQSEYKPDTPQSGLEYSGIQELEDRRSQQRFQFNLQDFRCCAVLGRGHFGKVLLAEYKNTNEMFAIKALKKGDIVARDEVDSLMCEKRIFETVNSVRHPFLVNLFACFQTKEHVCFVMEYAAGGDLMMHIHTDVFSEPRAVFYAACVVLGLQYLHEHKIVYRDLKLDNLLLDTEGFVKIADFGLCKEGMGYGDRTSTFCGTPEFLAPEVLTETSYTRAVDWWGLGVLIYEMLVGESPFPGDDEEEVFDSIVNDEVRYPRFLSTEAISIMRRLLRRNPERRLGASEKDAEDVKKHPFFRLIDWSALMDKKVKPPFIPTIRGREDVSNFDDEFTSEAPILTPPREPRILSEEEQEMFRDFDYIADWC

[29] = target: HUNK (human) (UniProt P57058)
[30] = target: MAP3K15 (human) (UniProt Q6ZN16)
[31] = target: STK32C (human) (UniProt Q86UX6)
[32] = target: CDK18 (human) (UniProt Q07002)
[33] = target: AAK1 (human) (UniProt Q2M2I8)
[34] = target: RPS6KA1 KD2 (human) (UniProt Q15418)
[35] = target: JAK2 JH1 catalytic (human) (UniProt O60674)
[36] = target: MKNK2 (human) (UniProt Q9HBH9)
[37] = target: CSNK2A2 (human) (UniProt P19784)
Chain of CSNK2A2 (human) (P19784 whole entry, looked up): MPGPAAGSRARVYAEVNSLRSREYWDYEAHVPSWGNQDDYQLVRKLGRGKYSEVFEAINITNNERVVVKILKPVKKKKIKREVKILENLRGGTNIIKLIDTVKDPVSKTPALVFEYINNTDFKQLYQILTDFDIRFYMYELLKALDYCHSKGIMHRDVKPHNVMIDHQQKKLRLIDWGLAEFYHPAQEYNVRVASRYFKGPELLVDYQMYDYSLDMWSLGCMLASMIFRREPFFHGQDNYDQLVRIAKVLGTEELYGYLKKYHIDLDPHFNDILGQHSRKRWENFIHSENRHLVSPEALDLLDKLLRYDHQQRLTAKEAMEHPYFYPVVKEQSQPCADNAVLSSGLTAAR

[38] = target: MAP2K5 (human) (UniProt Q13163)
[39] = target: EPHA5 (human) (UniProt P54756)
[40] = target: NEK1 (human) (UniProt Q96PY6)

Chain of RPS6KA4 KD2 (human) (O75676 whole entry, looked up): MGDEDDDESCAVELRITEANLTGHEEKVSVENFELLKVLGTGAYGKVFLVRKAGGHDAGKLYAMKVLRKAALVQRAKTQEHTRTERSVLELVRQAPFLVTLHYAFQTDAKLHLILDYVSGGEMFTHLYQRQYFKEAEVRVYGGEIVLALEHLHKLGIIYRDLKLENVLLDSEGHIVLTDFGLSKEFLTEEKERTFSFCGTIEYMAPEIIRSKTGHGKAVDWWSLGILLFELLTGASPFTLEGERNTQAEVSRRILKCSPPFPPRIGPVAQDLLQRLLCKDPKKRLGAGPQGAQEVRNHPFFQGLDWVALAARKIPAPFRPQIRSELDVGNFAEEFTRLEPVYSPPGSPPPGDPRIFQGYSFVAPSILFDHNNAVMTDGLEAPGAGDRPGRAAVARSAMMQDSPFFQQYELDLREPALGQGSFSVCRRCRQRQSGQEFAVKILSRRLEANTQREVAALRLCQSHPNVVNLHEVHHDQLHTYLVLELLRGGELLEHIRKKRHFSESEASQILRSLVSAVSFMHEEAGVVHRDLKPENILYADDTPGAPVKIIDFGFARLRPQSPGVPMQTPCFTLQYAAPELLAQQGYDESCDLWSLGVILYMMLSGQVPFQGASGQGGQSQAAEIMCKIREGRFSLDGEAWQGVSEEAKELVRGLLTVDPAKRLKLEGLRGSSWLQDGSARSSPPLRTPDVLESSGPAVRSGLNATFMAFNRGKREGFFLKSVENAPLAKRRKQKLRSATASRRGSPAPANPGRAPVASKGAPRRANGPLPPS
Chain of SNRK (human) (Q9NRH2 whole entry, looked up): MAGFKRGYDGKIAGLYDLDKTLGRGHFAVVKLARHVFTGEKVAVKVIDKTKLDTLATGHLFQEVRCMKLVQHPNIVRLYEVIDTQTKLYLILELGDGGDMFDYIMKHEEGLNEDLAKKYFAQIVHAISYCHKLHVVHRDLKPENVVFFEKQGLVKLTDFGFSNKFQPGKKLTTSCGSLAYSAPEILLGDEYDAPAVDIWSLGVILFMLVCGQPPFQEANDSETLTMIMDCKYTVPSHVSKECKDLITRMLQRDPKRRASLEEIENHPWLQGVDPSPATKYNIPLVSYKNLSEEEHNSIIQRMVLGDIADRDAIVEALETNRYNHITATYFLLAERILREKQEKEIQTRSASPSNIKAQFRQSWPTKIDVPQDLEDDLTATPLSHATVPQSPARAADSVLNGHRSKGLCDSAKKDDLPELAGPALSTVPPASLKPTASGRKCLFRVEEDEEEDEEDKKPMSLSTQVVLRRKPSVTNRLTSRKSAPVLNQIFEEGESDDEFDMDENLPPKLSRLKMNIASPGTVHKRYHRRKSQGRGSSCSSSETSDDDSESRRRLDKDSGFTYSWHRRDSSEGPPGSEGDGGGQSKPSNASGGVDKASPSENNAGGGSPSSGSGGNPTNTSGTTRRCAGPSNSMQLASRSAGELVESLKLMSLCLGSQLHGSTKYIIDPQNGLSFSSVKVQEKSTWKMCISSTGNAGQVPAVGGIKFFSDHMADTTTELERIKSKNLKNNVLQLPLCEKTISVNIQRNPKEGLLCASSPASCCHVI
Chain of AURKB (human) (Q96GD4 whole entry, looked up): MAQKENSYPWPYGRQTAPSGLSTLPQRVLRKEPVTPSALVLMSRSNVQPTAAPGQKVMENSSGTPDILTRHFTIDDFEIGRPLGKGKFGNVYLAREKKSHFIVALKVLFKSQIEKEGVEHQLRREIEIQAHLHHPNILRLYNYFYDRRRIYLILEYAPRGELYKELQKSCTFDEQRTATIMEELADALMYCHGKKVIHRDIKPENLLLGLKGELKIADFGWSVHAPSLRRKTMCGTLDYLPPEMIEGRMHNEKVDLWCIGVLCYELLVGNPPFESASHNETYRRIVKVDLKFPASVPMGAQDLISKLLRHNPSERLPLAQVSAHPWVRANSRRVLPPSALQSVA

Row | SMILES | kinase still bound, per cent of control [1] [%] | kinase still bound, per cent of control [2] [%] | kinase still bound, per cent of control [3] [%] | kinase still bound, per cent of control [4] [%] | kinase still bound, per cent of control [5] [%] | kinase still bound, per cent of control [6] [%] | kinase still bound, per cent of control [7] [%] | kinase still bound, per cent of control [8] [%] | kinase still bound, per cent of control [9] [%] | kinase still bound, per cent of control [10] [%] | kinase still bound, per cent of control [11] [%] | kinase still bound, per cent of control [12] [%] | kinase still bound, per cent of control [13] [%] | kinase still bound, per cent of control [14] [%] | kinase still bound, per cent of control [15] [%] | kinase still bound, per cent of control [16] [%] | kinase still bound, per cent of control [17] [%] | kinase still bound, per cent of control [18] [%] | kinase still bound, per cent of control [19] [%] | kinase still bound, per cent of control [20] [%] | further results
1 | CNC(=O)Nc1ccc(-c2nc(N3CC4CCC(C3)O4)c3cnn(C4CCC5(CC4)OCCO5)c3n2)cc1 | 92 | 69 | 53 | 100 | 100 | 100 | 100 | 100 | 91 | 86 | 80 | 94 | 100 | 93 | 82 | 100 | 100 | 95 | 94 | 100 | kinase still bound, per cent of control [21]: 98%; kinase still bound, per cent of control [22]: 100%; kinase still bound, per cent of control [23]: 77%; kinase still bound, per cent of control [24]: 99%; kinase still bound, per cent of control [25]: 80%; kinase still bound, per cent of control [26]: 93%; kinase still bound, per cent of control [27]: 86%; kinase still bound, per cent of control [28]: 83%; kinase still bound, per cent of control [29]: 100%; kinase still bound, per cent of control [30]: 100%; kinase still bound, per cent of control [31]: 90%; kinase still bound, per cent of control [32]: 92%; kinase still bound, per cent of control [33]: 100%; kinase still bound, per cent of control [34]: 91%; kinase still bound, per cent of control [35]: 100%; kinase still bound, per cent of control [36]: 87%; kinase still bound, per cent of control [37]: 100%; kinase still bound, per cent of control [38]: 93%; kinase still bound, per cent of control [39]: 92%; kinase still bound, per cent of control [40]: 100%
2 | CC1=C(C(=O)Nc2cc3cn[nH]c3cc2F)C(c2ccc(C(F)(F)F)cc2)CC(=O)N1 (stereo not given) | 42 | 89 | 90 | 100 | 100 | 100 | 92 | 68 | 100 | 33 | 84 | 13 | 71 | 69 | 36 | 41 | 76 | 96 | 100 | 78 | kinase still bound, per cent of control [21]: 100%; kinase still bound, per cent of control [22]: 46%; kinase still bound, per cent of control [23]: 97%; kinase still bound, per cent of control [24]: 74%; kinase still bound, per cent of control [25]: 92%; kinase still bound, per cent of control [26]: 93%; kinase still bound, per cent of control [27]: 88%; kinase still bound, per cent of control [28]: 52%; kinase still bound, per cent of control [29]: 100%; kinase still bound, per cent of control [30]: 77%; kinase still bound, per cent of control [31]: 48%; kinase still bound, per cent of control [32]: 100%; kinase still bound, per cent of control [33]: 70%; kinase still bound, per cent of control [34]: 83%; kinase still bound, per cent of control [35]: 12%; kinase still bound, per cent of control [36]: 62%; kinase still bound, per cent of control [37]: 86%; kinase still bound, per cent of control [38]: 71%; kinase still bound, per cent of control [39]: 86%; kinase still bound, per cent of control [40]: 91%
